# Measurements as given in article PMC10786692 (The Journal of Clinical Investigation, 2024).
# Columns and labels:
# [1] = Dose-limiting toxicity, MTD and RP2D determination; type: in vivo; conditions: for Number of DLT: 3 evaluable; for Patients with DLT / number of DLT: 6 evaluable
# Method: For part A (dose escalation; Figure 1, A and B), the starting dose of 20 mg was selected based on animal toxicity studies. Dosing was continuous, and escalation used a modified Fibonacci method. Initial dose escalation was planned in single patient cohorts, changing to 3+3 design after the first grade-2 toxicity was seen. […] DLT definitions are in the Supplemental Methods.
# For part B, all patients received the RP2D as defined for part A. Part B allowed for different schedules (continuous/intermittent) to be assessed. Initially, a continuous dosing schedule was used for the first 6 patients. […] Pretreatment biopsy was mandatory in part B. DNA-Seq of archival tumor material or review of external tumor sequencing was used to enrich for patients with putative genomic markers of sensitivity to ATRi, based on preclinical data, including oncogene amplification or driver mutation, ATM/G1 pathway defects (alteration in ATM, CHK2, or other components of the pathway causing G1 cell-cycle arrest after DNA damage), SWI/SNF (switch/sucrose nonfermentable, a chromatin-remodeling complex) pathway defect, genomic instability/homologous recombination deficit (HRD), or defect in a gene synthetically lethal with ATRi in published data ([46], [47]) (Figure 1B and Supplemental Table 3). […]
# (§1) Criteria for Dose Limiting Toxicity
# (§2) 1. Hematological toxicity
# (§3) 1. Grade 3 thrombocytopenia with bleeding
# (§4) 2. Grade 4 thrombocytopenia
# 3. Grade 4 neutropenia lasting >7 days in the absence of growth factor […]
# and/or systemic infection
# (§5) 5. Any other grade ≥4 hematological toxicity
# (§6) 2. Cardiovascular toxicity
# (§7) 1. Clinically significant hypotension defined as an asymptomatic fall in systolic blood pressure more than 20mmHg to below 70mmHg persisting for at least 10 minutes
# (§8) 2. Symptomatic orthostatic fall in systolic blood pressure of more than 20mmHg compared to resting supine blood pressure
# (§9) 3. Prolongation of QTc >0.5 seconds (using an appropriate correction […]
# (§10) 3. Gastrointestinal/hepatic toxicity
# (§11) 1. ALT or AST >5 times ULN; ALP >5 times ULN with elevated gamma- GT
# 2. ALT or AST >3 times ULN (or ALP >3 times ULN with elevated gamma-GT) with the appearance of symptoms associated with a clinical diagnosis of hepatitis including right upper quadrant pain or tenderness, fever, rash, or eosinophilia (>5%)
# 3. [ALT or AST >3 times ULN] and [total bilirubin >2 times ULN] or INR >1.5x ULN (unless patient receiving warfarin) (or other evidence of impaired liver synthetic function)
# 4. Any other grade 3-4 non-hematological toxicity occurring during the time period from the first dose to the end of the first cycle
# 2. Excluding grade 3 nausea or vomiting if ameliorated by medical management
# 3. Excluding grade 3 fatigue unless there is an increase by 2 grades from baseline
# 5. Any dose in cycle 1, or the start of cycle 2, delayed by more than 7 days due to toxicity or patient unable to complete cycle 1 at the planned dose due to toxicity (parts A and B only)
# 6. Any other toxicity that is greater than baseline, is clinically significant and/or unacceptable, does […]
# is considered to be dose-limiting by the investigators.
# advanced solid tumors = assay: Antitumor response by RECIST 1.1 and duration on study; type: in vivo, human; conditions: for Patients with PR: 40 mg BD or more
# plasma cytokines = assay: Plasma cytokines, Bio-Plex Pro 27-plex; type: in vivo, human; conditions: after 2 weeks of treatment
# Method: DNA-Seq of tumor and matched buffy coats was either by whole-exome sequencing or a custom-designed panel targeting all exons of genes of interest for 173 genes, including potential markers of sensitivity to ATRi. ACK-lysed whole blood or PBMCs were stained for flow cytometry using 8 multicolor panels. Plasma cytokines were assessed using the Bio-Plex Pro 27-Plex Panel (Bio-Rad). See Supplemental Methods for full information.
# Plasma was taken from EDTA tubes (BD vacutainer) used for buffy coat or immune profiling samples. Plasma was removed, re-spun and aliquoted into 1.5 mL tubes and stored at -70 OC until analysis. Samples were run in duplicate using the Bio-Plex Pro Human Cytokine 27-plex panel (Bio-Rad) as per manufacturer’s instructions.
# as §1, §2, §3, §4
# 3. Grade 4 neutropenia lasting >7 days in the absence of growth factor
# 4. Grade 4 neutropenia of any duration accompanied by fever ≥ 38.5°C and/or systemic infection
# as §5, §6, §7, §8, §9, §10, §11
smiles,measurement,setting,value
C[C@@H]1COCCN1c1cc(C2([S@](C)(=N)=O)CC2)nc(-c2cc[nH]c3nccc2-3)n1 [ceralasertib],Number of DLT,[1]; 20 mg BD,0
same,Number of DLT,[1]; 40 mg BD,0
same,Patients with DLT / number of DLT,[1]; 80 mg BD,1
same,Patients with DLT / number of DLT,[1]; 240 mg BD,3
same,Recommended phase 2 dose (RP2D),"[1]; BD (twice daily), intermittent: 2 weeks on, 2 weeks off, 4-weekly cycle",160 mg
same,Maximum tolerated dose,"[1]; BD, continuous dosing, dose escalation",160 mg
same,Patients with PR,"advanced solid tumors; mutation of interest, 4 of 30",13%
same,Patients with PR,"advanced solid tumors; no mutation of interest, 1 of 11",9%
same,"Progressive disease, n (%)","advanced solid tumors; 160 mg BD or more, n = 49",15 (30%)
same,Median duration on treatment,"advanced solid tumors; 4 ATM-low patients, range 8–29",13 weeks
same,Patients deriving clinical benefit,advanced solid tumors; 11 patients with oncogene-driven tumors,3
same,"Best overall response: progressive disease incl. clinical progression, n (%)",advanced solid tumors; 66 evaluable patients,27 (41%)
same,"Best overall response: stable disease incl. 1 unconfirmed PR, n (%)",advanced solid tumors; 66 evaluable patients,34 (52%)
same,"Best overall response: confirmed partial responses, n (%)","advanced solid tumors; 66 evaluable patients, 20–240 mg BD",5 (8%)
same,Duration,"advanced solid tumors; ARID1A E1387X, lobular breast carcinoma",42 days
same,Duration,"advanced solid tumors; ARID1A Q1188X, ovarian clear cell",275 days
same,Duration,"advanced solid tumors; ARID1A R693*, eccrine adenocarcinoma",240 days
same,Duration,"advanced solid tumors; ARID1A S1623L, cervix adenocarcinoma",203 days
same,Duration,"advanced solid tumors; ARID2 Y854fs, SCCHN",697 days
same,Tumor shrinkage,advanced solid tumors; ARID2 frameshift-bearing HNSCC,29%
same,Patients experiencing SD,advanced solid tumors; ATM-low patients,3 of 4
same,Best response,"advanced solid tumors; CCNE1 amplification, peritoneal carcinoma, 20 mg BD",progressive disease
same,Duration on study with SD,"advanced solid tumors; CCNE1 amplification, serous endometrial carcinoma",12 weeks
same,Duration of RECIST SD / on study,advanced solid tumors; HNSCC with ARID2 frameshift,99 weeks
same,Duration of RECIST SD,advanced solid tumors; HNSCC with CCND1 amplification,49 weeks
same,Duration on study,"advanced solid tumors; HNSCC, MRE11 and CDKN2A mutation","1,194 days"
same,Duration on study,"advanced solid tumors; HNSCC, RECIST PR, 40 mg BD",106 days
same,Duration of RECIST SD,"advanced solid tumors; HNSCC, no sequencing available",48 weeks
same,Duration on study with confirmed PR,advanced solid tumors; MRE11 stop-gain R633X with CDKN2A stop-gain,more than 32 months
same,Duration,"advanced solid tumors; PBRM S295*, SCCHN",112 days
same,Median duration of response,"advanced solid tumors; PR or SD, with a mutation of interest",185.5 days
same,Median duration of response,"advanced solid tumors; PR or SD, without a mutation of interest",105 days
same,Duration of response,"advanced solid tumors; PR, HNSCC with APC frameshift and TP53 mutation, 40 mg BD",15 weeks
same,Duration of response,"advanced solid tumors; PR, HNSCC with CDKN2A and MRE11A frameshift, 160 mg BD, remains on study",170 weeks
same,Duration of response,"advanced solid tumors; PR, esophageal squamous cell carcinoma, HR/Fanconi deficiency, 160 mg BD",47 weeks
same,Duration of response,"advanced solid tumors; PR, nasopharyngeal carcinoma, NRAS activating mutation, 240 mg BD",14 weeks
same,Duration of response,"advanced solid tumors; PR, ovarian clear cell carcinoma, ARID1A mutation, 160 mg BD, remains on study",251 weeks
same,Median duration of response,"advanced solid tumors; RECIST PR patients, IQR 14.9–251.0",46.7 weeks
same,Duration of RECIST SD,advanced solid tumors; digital papillary adenocarcinoma with TP53 mutation,51 weeks
same,Duration of SD,"advanced solid tumors; eccrine adenocarcinoma, ARID1A R693X, CDKN2A deletion, 240 mg BD",34 weeks
same,Duration on study,"advanced solid tumors; esophageal squamous cell carcinoma, RECIST PR, 160 mg BD intermittent",575 days
same,Duration of SD,"advanced solid tumors; increased cyclin E1 by IHC, cervical adenocarcinoma",29 weeks
same,Duration of SD,"advanced solid tumors; increased cyclin E1 by IHC, serous endometrial carcinoma, germline BRCA1 mutation",16 weeks
same,Duration on study,"advanced solid tumors; nasopharyngeal carcinoma, NRAS activation, RECIST PR, 240 mg BD",341 days
same,Duration on study,"advanced solid tumors; pancreatic adenocarcinoma, unconfirmed PR, 160 mg BD intermittent",480 days
same,Duration on study with SD,advanced solid tumors; pathogenic ATM mutation R1898fsX with coexisting ARID1A mutation,39 weeks
same,Participants deriving clinical benefit,advanced solid tumors; seven participants with SWI/SNF pathway aberrations,6
same,Duration of response,"advanced solid tumors; unconfirmed PR, TP53 mutant pancreatic adenocarcinoma, 160 mg BD",15 weeks
same,Circulating CCL2 level,plasma cytokines,increase
same,Circulating CCL4 level,plasma cytokines,decrease
same,Circulating CCL5 level,plasma cytokines,decrease
